# According to ChEMBL document CHEMBL1128923, “A simple synthesis of biaryl phospholipase A2 inhibitors: Probing hydrophobic effects” (Bioorg Med Chem Lett, 1996):
# Key:
# [1] = system: Mus musculus; assay: Effective dose to reduce mouse ear edema in a phorbol ester induced inflammation assay; assay type: functional
# [2] = target: T1, Phospholipase A2, membrane associated (Homo sapiens, UniProt P14555); assay: Compound was evaluated for inhibition of human platelet phospholipase A2 (HP-PLA2).
# T1 sequence (P14555 whole entry): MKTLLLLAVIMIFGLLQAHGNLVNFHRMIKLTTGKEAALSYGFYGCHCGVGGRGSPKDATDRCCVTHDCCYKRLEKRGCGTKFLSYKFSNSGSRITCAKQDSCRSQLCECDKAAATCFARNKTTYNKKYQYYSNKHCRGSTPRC
# [3] = target: T2, Phospholipase A2, membrane associated (Homo sapiens) (UniProt P14555); assay: Compound was evaluated for inhibition of phospholipase A2 (PLA2) isolated from human platelets at a concentration of 10 uM
# T2 sequence (whole entry): T1 sequence (P14555 whole entry)
# [4] = target: T2, Phospholipase A2, membrane associated (Homo sapiens); assay: Compound was evaluated for inhibition of phospholipase A2 (PLA2) isolated from human platelets at a concentration of 100 uM
SMILES,IC50 [2] [µM],inhibition [3] [%],inhibition [4] [%],ED50 [1] [ug ear-1]
CC1=C(/C=C/C(C)=C/C=C(/C(C)=C/C(=O)O)c2cccc(C(=O)O)c2)C(C)(C)CCC1,40,–,–,160
O=C(O)c1ccccc1-c1ccccc1C(=O)NCCc1c[nH]c2ccc(O)cc12,–,0,0,–
CC(C)c1ccc2c(c1)CC[C@H]1C[C@](C)(CNC(=O)c3ccccc3-c3ccccc3C(=O)O)CC[C@]21C,–,6,63,–
O=C(O)c1ccccc1-c1ccccc1C(=O)NC1CCCCCCC1,–,2,15,–
CC1(C)CCC(C)(C)c2cc(NC(=O)c3ccccc3-c3ccccc3C(=O)O)ccc21,–,14,35,–

# More lines, main results first:
IC50 [2] [µM],inhibition [3] [%],inhibition [4] [%],SMILES,ED50 [1] [ug ear-1]
–,2,23,CCCCCCCCCCOc1ccc(NC(=O)c2ccccc2-c2ccccc2C(=O)O)cc1OCC(=O)O,–
–,26,92,CCCCCCCCCCc1ccc(NC(=O)c2ccccc2-c2ccccc2C(=O)O)cc1,–
–,2,8,O=C(O)c1ccccc1-c1ccccc1C(=O)Nc1ccc2ccccc2c1,–
–,85,98,CCCCCCCCCCOc1ccc(NC(=O)c2ccccc2-c2ccccc2C(=O)O)cc1OCCCCCCCCCC,–
